Literature values, collected in patent publication US20190314394A1, “IMMUNE-POTENTIATING DRUG NANOCARRIERS AND METHODS OF PRODUCTION AND USE THEREOF” (priority 2013, published 2019).
pIC50: −log10 of the molar value.

Tested on: HLA-DR molecules
Conditions: 15 out of 16 of the most prevalent HLA-DR molecules; read-out: IC50 (high or intermediate affinity binding)

Question: With “aKXVAAWTLKAAa (SEQ ID NO: 5) (AKAVAAWTLKAAA; D-alanine termini, cyclohexylalanine; MOD_RES (1)..(1) D-Alanine; MOD_RES (3)..(3) Cyclohexylalanine; MOD_RES (13)..(13) D-Alanine) [PADRE peptide variant; a=D-alanine, X=cyclohexylalanine]” as the substance, how does the pIC50 read?
Answer: > 6.00
